How the values were obtained:
[1] = tested on: A549 cells; test: MTT growth inhibition, A549 NSCLC; type: cell-based, human
Method: Human cancer cell lines were obtained from the American Type Culture Collection (ATCC, Manassas, Va., USA), the European Collection of Cell Culture (ECACC, Salisbury, UK), and the Deutsche Sammlung von Mikroorganismen und Zellkulturen (DSMZ, Braunschweig, Germany). Human cervical adenocarcinoma HeLa cells were cultured in DMEM supplemented with 10% fetal bovine serum (FBS). Human mammary carcinoma MCF-7 cells were cultured in RPMI supplemented with 10% FBS. The U87 cells (ATCC HTB-14) were cultured in DMEM culture medium, while the A549 cells (DSMZ ACC107) were cultured in RPMI culture medium supplemented with 10% heat-inactivated FBS. The GBM Hs683 (ATCC HTB-138) and the T98G (ATCC CRL-1690) cell lines were cultivated in DMEM supplemented with 10% FBS. The GBM U251 cells (ECACC code 09063001) were cultured in 10% MEM. The human uterine sarcoma MES-SA and MES-SA/Dx5 cells were cultured in RPMI-1640 medium supplemented with 10% FBS with MES SA/Dx5 maintained in the presence of 500 nM Doxorubicin (Sigma™). The U373 glioblastoma cells (ECACC 08061901) were cultured in RPMI culture medium supplemented with 10% heat-inactivated FBS.
All compounds were dissolved in DMSO at a concentration of either 100 mM or 50 mM prior to cell treatment. The cells were trypsinized and seeded at various cell concentrations depending on the cell type. The cells were grown for 24 h to 72 h, treated with compounds at concentrations ranging from 0.001 to 100 μM, and incubated for 48, 72, or 96 h in 100 or 200 μL media depending on the cell line used. Cells treated with 0.1% DMSO were used as a negative control, and cells treated with 1 μM phenyl arsine oxide (PAO) were used as a positive control.
Drug-resistant cell lines (i.e., glioma: Hs683, U373, U251, U87, T98G; lung cancer: A549, H2073; uterine carcinoma: MES-SA/Dx5) were complemented with drug-sensitive cell lines, H1993 lung cancer and MES-SA uterine cancer, which were used as controls. […] The GI50 values were calculated after 48-96 hours of treatment with the indicated compounds in replicate using the MTT growth assay.
Compounds 5l and 5g were further tested using the A549 lung cancer cell line to determine a dose-response effect on apoptosis-resistant cells. (FIGS. 4-7). […] The MTT assay was performed in four replicates after 48 hours of treatment with the indicated compounds relative to a DMSO control.

[2] = tested on: GBM 090909 cells; test: MTT growth inhibition, primary GBM-derived neurosphere culture GBM 090909; type: cell-based; conditions: Homo sapiens, Table 3, 48-96 h treatment, read-out: GI50 in vitro values, glioma GBM 090909
Method: (§1) Cell culture media were supplemented with 4 mM glutamine (Lonza code BE17-605E), 100 μg/mL gentamicin (Lonza code 17-5182), and penicillin-streptomycin (200 units/ml and 200 μg/ml) (Lonza code 17-602E). Primary GBM-derived neurosphere cultures from a patient undergoing surgical debulking were established using previously described methods. Briefly, resected tumor tissue was minced with a sterile scalpel and dissociated in 3 mL of neurobasal (NB) media containing 100 U/mL of collagenase (Life Technologies™) for 30 minutes at 37° C. Dissociated tissue was then vortexed and filtered using a sterile 70 um nylon Falcon™ cell strainer (Corning™). […]
(§2) Compound 4l was evaluated for in vitro growth inhibition against a panel of cancer cell lines, including U373, U251, U87, T98G, human GBM, and A549 NSCLC. […] Compound 4l was also evaluated for in vitro growth inhibition against the apoptosis-sensitive tumor model Hs683 anaplastic oligodendroglioma as a reference.

[3] = tested on: GBM 031810 cells; test: MTT growth inhibition, primary GBM-derived neurosphere culture GBM 031810; type: cell-based; conditions: Homo sapiens, Table 3, 48-96 h treatment, read-out: GI50 in vitro values, glioma GBM 031810
Method: as §1, §2

[4] = tested on: H1993 cells; test: Combination treatment with paclitaxel, CellTiter-Glo viability, Bliss Independence; type: cell-based, human; conditions: 96 h, FIG. 2
Method: Spirodienone 4l was evaluated against patient-derived NSCLC cell line H1993 and its drug-resistant variant, H2073. The patient-derived NSCLC cell line […] was obtained from a regrown tumor at a primary site after a patient relapsed several months later.
Paclitaxel (Teva™) was dissolved in polyethoxylated castor oil. Compound 4l was dissolved in DMSO. The compound was diluted to different concentrations in medium. Appropriate numbers of cells (4×10^3 cells per well for H1993, 7×10^3 cells per well for H2073) were seeded into 96-well plates. […] After 96 h, viability of cells was assessed using the CellTiter-Glo® Luminescent Cell Viability Assay (Promega™), according to the manufacturer's instructions. Predicted additivity was calculated based on Bliss Independence, as defined by Exy=Ex+Ey−ExEy, where Exy is the additive effect of drugs x and y as predicted by the individual effects Ex and Ey.
FIG. 2 and FIG. 3 illustrate the synergism against H1993 cells.

GI50 ([1]; Homo sapiens, Table 5, 48-96 hours of treatment, read-out: GI50, Lung Cancer A549) [µM] | SMILES | anti-proliferative activity, dose-response (absorbance at 595 nm) ([1]; 48 hours, up to 100 μM, FIGS. 4-7) | GI50 [2] [µM] | GI50 [3] [µM] | synergism with paclitaxel in antiproliferative action [4]
4 | O=C1C=C[C@]23CC[N@](Cc4c2sc2ccccc42)[C@H]3C1 [Compound 5l] | inhibited proliferation of the cells in a dose-dependent manner |  |  | 
 | O=C1C=CC2(C=C1)CCN(C(=O)C(F)(F)F)Cc1c2sc2ccccc12 [Compound 4l] |  | 7 | 8 | synergize with paclitaxel

— patent US10414778B2, “Methods for treatment of resistant cancer” (New Mexico Tech University Research Park Corporation, priority 2016, dated 2019)
